Data on 4 molecules can be found in patent US20240343762A1, “USE OF PROTON PUMP MODULATOR IN PREPARING REAGENT” (SHANGHAI QUIETD BIOTECHNOLOGY CO. LTD., priority 2021, published 2024).

Test [1] relates to hippocampal CA1 pyramidal neurons. As to the kind of experiment: Whole-cell patch-clamp recording of spontaneous excitatory postsynaptic current (sEPSC) in hippocampus brain slice. The class given is cell-based, mouse. The note with it: sEPSC at -70 mV, perfusion for 5 min; 5 μM in Embodiment 3. How it is done:
0.1-0.15 ml of 20% ethyl carbamate was injected into the abdominal cavity of a C57 mouse of 2 to 3 months old for anesthesia; a head was quickly cut, and brain tissues were stripped and put into artificial cerebrospinal fluid (ACSF) ice-water mixed liquid into which mixed gas (95% O2 and 5% CO2) was introduced in advance, and stood for 2 min; the ACSF included the following components: […] of NaCl, […] of KCl, 0.12 mM of NaH2PO4, 0.25 mM of CaCl2), 0.12 mM of MgCl2, 25 mM of NaHCO3 and 11 mM of glucose. A hippocampus coronal brain slice of 350 μm was cut by a vibration slicer. The hippocampus coronal brain slice was placed into the ACSF at room temperature for more than 30 min for recovery, and then the brain slice was put into a record slot; continuous perfusing was performed at a speed of 2 to 2.5 ml/min by the ACSF into which the mixed gas was introduced; blind-binding sealing was performed on hippocampus CA1 pyramidal neuron under an Olympic BX51 upright microscope; whole-cell patch-clamp was performed by an Axon700B amplifier and a 1550B digital-to-analog converter; spontaneous excitatory postsynaptic current (sEPSC) of the pyramidal neuron was recorded by a voltage clamp under the clamp voltage of −70 mV; after recording for 5 min, synthetic polypeptides such as 5 μM QD202 or QD202 N′-1, C′-1 and C′-2 for 5 min; and then perfusing and flushing were performed for 10 min by the ACSF. The recorded data was analyzed by Minianalysis software. […]

Test [2] deals with T1, ATP6V1B2 protein of mouse brain hippocampus tissue (endogenous) (mouse, UniProt P62814 1-511).
T1 construct: Endogenous protein in tissue lysate; also called band of about 55 kDa
T1 sequence (P62814 whole entry): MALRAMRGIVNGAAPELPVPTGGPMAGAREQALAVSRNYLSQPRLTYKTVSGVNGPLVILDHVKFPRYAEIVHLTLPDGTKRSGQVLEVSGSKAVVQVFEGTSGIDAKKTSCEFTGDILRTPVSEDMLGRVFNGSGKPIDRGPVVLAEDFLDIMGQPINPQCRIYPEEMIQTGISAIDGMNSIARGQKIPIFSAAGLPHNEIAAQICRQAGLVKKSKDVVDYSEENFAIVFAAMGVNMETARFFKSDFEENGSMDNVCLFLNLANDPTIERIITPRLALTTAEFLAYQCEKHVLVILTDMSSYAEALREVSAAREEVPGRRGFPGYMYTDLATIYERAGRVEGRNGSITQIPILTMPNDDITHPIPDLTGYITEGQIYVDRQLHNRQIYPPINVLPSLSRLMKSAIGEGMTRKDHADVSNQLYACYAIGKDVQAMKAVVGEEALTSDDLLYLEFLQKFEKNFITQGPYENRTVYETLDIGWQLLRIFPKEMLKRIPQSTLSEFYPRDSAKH
As to the kind of experiment: immunoprecipitation with biotin antibody from mouse hippocampus lysate, SDS-PAGE, mass spectrometry.

Ends that are not written are not given here.

“QD202 C′-1: polypeptide of SEQ ID NO. 3; QD202 with one amino acid removed at the C end (YGRKKRRQRRRSPVDVVC; QD202 C -1)”: the “spontaneous excitatory synaptic transmitter release of hippocampal CA1 neurons” value in test [1] was “effect similar to that of QD202 can still be observed”.

Consider “QD202 C′-2: polypeptide of SEQ ID NO. 4; QD202 with two amino acids removed at the C end (YGRKKRRQRRRSPVDVV; QD202 C -2)”, for which the “spontaneous excitatory synaptic transmitter release of hippocampal CA1 neurons” value in test [1] was “effect similar to that of QD202 cannot be observed”.

As for “QD202 N′-1: polypeptide of SEQ ID NO. 2; QD202 with one amino acid removed at the N end (YGRKKRRQRRRPVDVVCS; QD202 N -1)”, the “spontaneous excitatory synaptic transmitter release of hippocampal CA1 neurons” value in test [1] is “effect similar to that of QD202 cannot be observed”.

B1: Disordered control QD201 with a biotin label at the C' end (peptide)
peptide: YGRKKRRQRRRVCDSSVVP-biotin
With B1, in test [2], the binding result is “no binding”.
